Literature values, collected in patent US6800616B2, “Treatment of HIV infections” (SuperGen, Inc., priority 1998, dated 2004).

Assays:
[1] = test system: T cells, CD4+ subset; settings: patients given DCF, FLU or 2CDA
[2] = test system: resting normal human lymphocytes
[3] = target: T1, adenosine deaminase (ADA) (Homo sapiens, UniProt P00813)
T1 sequence (P00813 1-363): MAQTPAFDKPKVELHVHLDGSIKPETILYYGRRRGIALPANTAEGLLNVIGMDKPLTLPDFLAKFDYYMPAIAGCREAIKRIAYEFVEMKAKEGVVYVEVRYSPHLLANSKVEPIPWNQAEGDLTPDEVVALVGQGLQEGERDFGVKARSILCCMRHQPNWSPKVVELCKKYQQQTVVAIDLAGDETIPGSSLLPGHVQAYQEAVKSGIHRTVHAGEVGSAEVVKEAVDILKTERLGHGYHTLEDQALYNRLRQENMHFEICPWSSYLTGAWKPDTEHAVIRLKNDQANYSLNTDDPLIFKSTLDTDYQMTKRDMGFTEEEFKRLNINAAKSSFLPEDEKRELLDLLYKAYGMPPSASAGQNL

SMILES	frequency of opportunistic infections [1]	lymphopenia upon administration [1]	toxicity to resting lymphocytes [2]	resistance to ADA [3]
Nc1nc(Cl)nc2c1ncn2[C@H]1C[C@H](O)[C@@H](CO)O1 [2CDA, 2-chloro-2′-deoxyadenosine]	increased frequency of opportunistic infections	prolonged lymphopenia predominating in T cells, especially in the CD4+ subset	selectively harm resting normal human lymphocytes	rather resistant to the enzyme
OC[C@H]1O[C@@H](n2cnc3c2NC=NC[C@H]3O)C[C@@H]1O [DCF, 2′-deoxycoformycin]	increased frequency of opportunistic infections	prolonged lymphopenia predominating in T cells, especially in the CD4+ subset	–	–
Nc1nc(F)nc2c1ncn2[C@@H]1O[C@H](COP(=O)(O)O)[C@@H](O)[C@@H]1O [FLU, fludarabine monophosphate]	increased frequency of opportunistic infections	prolonged lymphopenia predominating in T cells, especially in the CD4+ subset	–	rather resistant to the enzyme
